Experimental findings from ChEMBL document CHEMBL2029257, “Copper-Free Click for PET: Rapid 1,3-Dipolar Cycloadditions with a Fluorine-18 Cyclooctyne” (ACS Med Chem Lett, 2011) are described below.

Common to all, as to assay type: ADME, cell-free
The nature of series [1]: Metabolic stability in Sprague-Dawley rat serum assessed as compound remaining at 2 MBq at 1 hr by RP-HPLC analysis. The note with it: read-out: Stability.
A further series relates to Serum. The series is described as follows: (§1) Metabolic stability in Sprague-Dawley rat serum assessed as compound remaining at 2 MBq at 2 hrs by RP-HPLC analysis. The conditions noted are these: 2 h.
Series [2] in a line: as §1. The note with it: Sprague-Dawley, read-out: Stability.

As for `O=C(NCCCCCC(=O)N1Cc2ccccc2C#Cc2ccccc21)c1ccc([18F])cc1`, the remaining at 1 h, 2 MBq in series [1] was above 98%. In the series on Serum, the Stability result is recorded as “Stable”.
On to `O=C(O)COCC(=O)NCCOCCOCCOCCOCCOCCOCCOCCOCCn1nnc2c1-c1ccccc1CN(C(=O)CCCCCNC(=O)c1ccc([18F])cc1)c1ccccc1-2`, for which the remaining at 1 h, 2 MBq in series [1] is above 98%. Moreover, the remaining at 2 h, 2 MBq in series [2] is 96.8%.
